{"source": "patent US20200113852A1", "about": "“METHODS OF PATIENT SELECTION AND TREATING TRXR- OR PRDX-OVEREXPRESSED CANCERS” (TRIACT THERAPEUTICS, INC., priority 2017, published 2020)", "key": {"TrxR in HCT116 cells": {"biological_target": "T1, TrxR in HCT116 cells (Homo sapiens, UniProt Q16881)", "T1 sequence (Q16881 1-649)": "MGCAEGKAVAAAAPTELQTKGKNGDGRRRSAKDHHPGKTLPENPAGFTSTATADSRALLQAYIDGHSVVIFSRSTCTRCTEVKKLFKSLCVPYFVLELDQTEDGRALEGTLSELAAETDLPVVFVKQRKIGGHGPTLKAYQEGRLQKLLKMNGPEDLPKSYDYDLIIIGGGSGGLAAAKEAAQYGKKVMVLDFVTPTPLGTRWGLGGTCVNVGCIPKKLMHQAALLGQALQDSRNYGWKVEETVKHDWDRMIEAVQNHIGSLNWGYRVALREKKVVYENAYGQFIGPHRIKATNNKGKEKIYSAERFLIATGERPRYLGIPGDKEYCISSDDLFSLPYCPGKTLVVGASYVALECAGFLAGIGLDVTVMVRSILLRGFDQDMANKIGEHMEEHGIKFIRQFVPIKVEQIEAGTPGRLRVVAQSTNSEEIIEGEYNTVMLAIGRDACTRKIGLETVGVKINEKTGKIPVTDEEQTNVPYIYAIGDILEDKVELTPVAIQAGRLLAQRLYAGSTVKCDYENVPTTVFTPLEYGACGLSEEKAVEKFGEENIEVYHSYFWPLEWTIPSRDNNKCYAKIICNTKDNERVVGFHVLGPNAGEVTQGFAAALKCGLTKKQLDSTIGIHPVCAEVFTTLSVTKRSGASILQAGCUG", "assay": "Endogenous TrxR activity in cell lysates (DTNB reduction assay)", "assay_type": "cell-based"}, "TrxR in MDA-MB-231 cells": {"test_system": "TrxR in MDA-MB-231 cells", "assay": "Endogenous TrxR activity (DTNB reduction assay)", "assay_type": "cell-based, human", "settings": "GSH-depleted MDA-MB-231; iniparib 100 μM, Auranofin 1 μM, up to 4 h", "description": "Initial velocities were derived from linear regression analyses and then plotted in double reciprocal plots to obtain the half time of TrxR inhibition using an one phase exponential decay analysis (Prism, GraphPad software)."}, "[1]": {"biological_target": "T2, TrxR1 and other protein targets in HCT116 cells (Homo sapiens, UniProt Q16881)", "T2 sequence (Q16881 1-499 isoform Q16881-5)": "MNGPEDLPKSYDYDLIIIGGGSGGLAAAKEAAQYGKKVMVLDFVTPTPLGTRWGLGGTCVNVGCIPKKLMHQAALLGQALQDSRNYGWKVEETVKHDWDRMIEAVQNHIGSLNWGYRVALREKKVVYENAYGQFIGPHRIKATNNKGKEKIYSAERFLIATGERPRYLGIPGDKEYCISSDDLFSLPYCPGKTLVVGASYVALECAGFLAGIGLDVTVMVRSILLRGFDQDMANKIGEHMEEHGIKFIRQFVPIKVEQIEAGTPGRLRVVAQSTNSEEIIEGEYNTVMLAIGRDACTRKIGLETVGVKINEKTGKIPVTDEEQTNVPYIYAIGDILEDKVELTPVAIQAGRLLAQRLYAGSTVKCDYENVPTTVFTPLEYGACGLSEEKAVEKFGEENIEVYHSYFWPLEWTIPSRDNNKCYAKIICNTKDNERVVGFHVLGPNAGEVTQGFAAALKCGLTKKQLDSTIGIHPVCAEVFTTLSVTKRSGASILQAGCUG", "experimental": "(§1) TrxR1 immunoprecipitates (FIG. 17A) and cells extracts (FIG. 17B) were analysed by SDS-PAGE under reducing conditions followed by streptavidin-HRP blot and TrxR1 blot.\n(§2) Clarified octyl-glucoside lysates (12 mg proteins) were combined with anti-TrxR1 or anti-TrxR2 monoclonal antibody coupled to protein G plus agarose (Santa Cruz Biotechnology) and mixed overnight at 4° C. Beads were recovered by centrifugation for 2 min at 1,000×g and extensively washed in octyl-glucoside lysis buffer. Precipitated complexes were eluted by incubating the beads for 20 min at 60° C. in SDS sample buffer. The amount of immunoprecipitated TrxR1 and TrxR2 was systematically checked by blots anti-TrxR1 and anti-TrxR2, respectively."}, "[2]": {"test_system": "TrxR1 and other protein targets in HCT116 cells", "settings": "GSH-depleted HCT116", "experimental": "as §1, §2"}, "[3]": {"test_system": "Trx, JNK, p38MAPK, PARP in HCT116 cells", "assay": "Cell death signaling western blots (Trx oxidation, phospho-JNK, phospho-p38MAPK, cleaved-PARP)", "settings": "GSH-depleted HCT116, 7 h or 24 h", "experimental": "Cells extracts were analyzed by SDS-PAGE either under reducing conditions or under non-reducing conditions in the case of Trx blot followed by blots anti-phospho-JNK, anti-phospho-p38MAPK, anti-cleaved-PARP and anti-Trx. Results are representative of three independent experiments.\nAfter 2 h at 4° C., lysates were clarified by centrifugation and protein amounts were measured using the BCA assay (Pierce, Thermo scientific).\nEqual amounts of proteins were resolved by SDS-PAGE under either non-reducing or reducing (5% 2-mercaptoethanol, 20 min at 60° C.) conditions, using 4-20% gels (Novex, Invitrogen), then subjected to semi-dry electrophoretic transfer onto nitrocellulose membranes."}}, "data": [{"smiles": "CC(=O)OC[C@H]1O[C@@H]([S-])[C@H](OC(C)=O)[C@@H](OC(C)=O)[C@@H]1OC(C)=O.CCP(CC)CC.[Au+]", "note": "[Auranofin]", "values": [{"measurement": "inhibition of TrxR activity", "setting": "TrxR in HCT116 cells; 1 μM, immediately after adding the compound to the cells", "value": "inhibited almost completely"}, {"measurement": "IC50", "setting": "TrxR in HCT116 cells; 4 h treatment, BSO-pretreated HCT116", "value": 70, "unit": "nM"}, {"measurement": "TrxR reductase activity", "setting": "TrxR in MDA-MB-231 cells", "value": "inhibition of the reductase activity"}, {"measurement": "TrxR1 labeling with Iniparib-biotin after preincubation", "setting": "[1]; 90-min preincubation of GSH-depleted HCT116 (auranofin 10 μM or Iniparib 100 μM)", "value": "abolished"}, {"measurement": "concentration preventing Iniparib-biotin labeling of the 55-kDa protein attributed to TrxR", "setting": "[1]; GSH-depleted HCT116", "value": "0.1 to 0.3", "unit": "µM"}, {"measurement": "concentration inhibiting all adduct formation with Iniparib-biotin", "setting": "[2]", "value": "1 to 3", "unit": "µM"}, {"measurement": "p38MAPK and JNK phosphorylation", "setting": "[3]", "value": "JNK and p38MAPK activation"}]}]}
